One assay relates to intestinal organoids. The experiment in a line: Population RNA-sequencing of organoids. The assay is classed as cell-based, murine. On the procedure:
Population RNA-sequencing. Population RNA-seq was performed using a derivative of the Smart-Seq2 protocol for single cells. In brief, organoid media was aspirated and RLT+BME (Qiagen) was added to each well, and plate shaken for 30 minutes to fully lyse. Lysate was aliquoted into 4 identical fractions and stored at −80° C. until reverse transcription. RNA lysate was thawed and cleaned with a 2.2×SPRI ratio using Agencourt RNAClean XP beads (Beckman Coulter, A63987). RNA-seq was performed on a bulk population of […] using Smart-Seq2 chemistry, starting with a 2.2×SPRI ratio cleanup. After oligo-dT priming, Maxima H Minus Reverse Transcriptase (ThermoFisher EP0753) was used to synthesize cDNA with an elongation step at 52° C. before PCR amplification (15 cycles for tissue, 18 cycles for sorted basal cells) using KAPA HiFi PCR Mastermix (Kapa Biosystems KK2602). Sequencing libraries were prepared using the Nextera XT DNA tagmentation kit (Illumina FC-131-1096) with 250 pg input for each sample. Libraries were pooled post-Nextera and cleaned using Agencourt AMPure SPRI beads with successive 0.7× and 0.8× ratio SPRIs and sequenced with an Illumina 75 Cycle NextSeq500/550v2 kit (Illumina FC-404-2005) with loading density at 2.2 pM, with paired end 35 cycle read structure. Samples were sequenced at an average read depth of 8.44 million reads per sample and a total of 96 samples.
Organoid samples were aligned to the Mm10 genome and transcriptome using STAR and RSEM. […] For module scoring with the in vivo Paneth and enteroendocrine cell-defining genes, Applicants used previously published gene sets and computed persample module scores through the Seurat package.

The test system of a further assay is Paneth cells. The experiment in a line: In vivo oral gavage of KPT-330 every other day for two weeks: histological counting of Paneth, Olfm4+ stem and PAS+ goblet cells in small intestine. Also noted: species or system C57BL/6 wild-type mice. How it is done:
Applicants tracked animal weight every other day, and at day 14 collected the proximal and distal thirds of the small intestine for histological quantification of Paneth, stem, and goblet populations (FIG. 26A). […] Samples were prepared for histology by the 'swiss-roll' technique, and following staining, were blinded and randomized before manual counting of well-preserved features. […] Animal study. 8-10 weeks old wild type C57BL/6NCrl male mice (#027) were purchased from Charles River. […] All animal studies are approved by the Committee on Animal Care (CAC) at Massachusetts Institute of Technology. Histology. The small intestine (SI) was collected from mice and divided into three parts. Only proximal and distal SI were kept in PBS, and medial SI was discarded. Each SI was opened longitudinally and washed in PBS. […] Fixed tissues were embedded in paraffin, and […] sections were mounted on slides. […] For McManus Periodic Acid Schiff (PAS) reaction, slides were deparaffinized, oxidized in periodic acid, and stained with Schiff reagent (Poly Scientific, s272) followed by counterstaining with Harris Hematoxylin. Slides were scanned by Aperio Slide Scanner (Leica) and cells were counted on Aperio eSlide Manager. Slides were randomized before counting, and all cell types were counted in all well-preserved crypts along the longitudinal crypt-villus axis. […] Because Paneth cell number and quality is known to physiologically change along the length of the small intestine, and diseases associated with Paneth cells most frequently present distally^56, Applicants sought to profile how XPO1 inhibition may differentially affect proximal and distal small intestine. Applicants tracked animal weight every other day and collected the proximal and distal thirds of the small intestine at day 14 for histological quantification of Paneth, stem, and goblet populations (FIG. 61A). […] Paneth cells were counted within well-preserved crypts-with at least 30 crypts quantified per animal (representative images FIG. 62C) and the counts were averaged. […] Animal study. 8-10 weeks old wild type C57BL/6NCrl male mice (#027) were purchased from Charles River. […] All animal studies are approved by the Committee on Animal Care (CAC) at Massachusetts Institute of Technology. Histology. The small intestine (SI) was collected from mice and divided into three parts. Only proximal and distal SI were kept in PBS, and medial SI was discarded. Each SI was opened longitudinally and washed in PBS. […] Fixed tissues were embedded in paraffin, and […] sections were mounted on slides. […] For McManus Periodic Acid Schiff (PAS) reaction, slides were deparaffinized, oxidized in periodic acid, and stained with Schiff reagent (Poly Scientific, s272) followed by counterstaining with Harris Hematoxylin. Slides were scanned by Aperio Slide Scanner (Leica) and cells were counted on Aperio eSlide Manager. Slides were blinded and randomized before counting, and all cell types were counted in all well-preserved crypts along the longitudinal crypt-villus axis (Paneth cell: >30 crypts, Olfm4+ cell: ≥17 crypts, Goblet cell: >15 villi, per sample). For the Goblet cell images, the samples that include less than 15 well-preserved crypt-villus axes were excluded, which was predetermined.

“Also recorded” adds a separate entry of the source.

On to `O=C(/C=C\n1cnc(-c2cc(C(F)(F)F)cc(C(F)(F)F)c2)n1)NNc1cnccn1` [KPT-330], for which, in the assay on intestinal organoids (ENR+CV, ENR+CD or ENR organoids), the “secretory cell identity (Paneth, goblet, EEC) from bulk transcripts” value was “increase secretory cells (Paneth, goblet, and EEC)”. Besides, the “number of differentially expressed genes” value in the assay with intestinal organoids (hits compared, ENR and ENR+CD) is “the most differentially expressed genes”. Besides, the “Olfm4+ stem cells per crypt” value in the assay on Paneth cells (0.01 mg/kg, distal SI, day 14) is “significant increase in Olfm4+ stem cells”. The “fraction of crypts with more Paneth cells than the vehicle 90th percentile cutoff (5 per crypt)” value with Paneth cells (0.01 mg/kg, distal small intestine) is reported as 27.9%. In addition, the “Paneth cell abundance per crypt” value with Paneth cells (0.01 mg/kg, distal small intestine, day 14) was “significant increases in Paneth cell abundance”; with Paneth cells (0.01 mg/kg, proximal small intestine, day 14) it was “significant increases in Paneth cell abundance”; in the assay with Paneth cells (0.2 mg/kg, proximal small intestine, day 14), “significant increases in Paneth cell abundance”. Moreover, the “fraction of crypts with more Paneth cells than the vehicle 90th percentile cutoff (4 per crypt)” value in the assay on Paneth cells (0.2 mg/kg, proximal small intestine) is 15.5%. Moreover, in the assay on Paneth cells (0.01-0.2 mg/kg, proximal and distal SI, day 14), the “PAS+ goblet cell population” value is recorded as “did not overserve any significant changes; also recorded: did not identify any significant changes”. Besides, the “additional Paneth cells per crypt in vivo” value in the assay on Paneth cells (low dose KPT-330) is listed as 0.5-1 Paneth cells per crypt.

The values above are taken from US20230398130A1, “METHODS AND COMPOSITIONS FOR DIFFERENTIATING STEM CELLS” (Massachusetts Institute of Technology, priority 2020, published 2023).
